According to PMC5244392, “Interspecies cathelicidin comparison reveals divergence in antimicrobial activity, TLR modulation, chemokine induction and regulation of phagocytosis” (Scientific Reports, 2017):

How the values were obtained:
[1] = test system: methicillin resistant Staphylococcus aureus (MRSA) (WKZ-2, human clinical isolate); test: Bacterial growth delay (Bioscreen C), MRSA; format: cell-based; conditions: for Cmax, MRSA, DMEM / Summary class, antimicrobial activity S. aureus DMEM / Max: hours growth delay with 20 μM cathelicidin, MRSA, DMEM: DMEM + FCS; for Cmax, MRSA, DMEM / Cmax, MRSA, MHB: 1 × 10^6 CFU/ml, peptide 0.31-20 μM, 16 h, 37 °C, — = no Cmax reached up to 20 μM; for Cmax, MRSA, DMEM / Cmax, MRSA, MHB / Max: hours growth delay with 20 μM cathelicidin, MRSA, DMEM / Max: hours growth delay with 20 μM cathelicidin, MRSA, MHB: N = 4; for Summary class, antimicrobial activity S. aureus DMEM / Summary class, antimicrobial activity S. aureus MHB: MRSA, − is not defined in the key; for Max: hours growth delay with 20 μM cathelicidin, MRSA, DMEM / Max: hours growth delay with 20 μM cathelicidin, MRSA, MHB: 20 μM peptide, given if no Cmax was reached
Procedure: (§1) E. coli O78 (Zoetis Animal Health, Kalamazoo, MI, USA), E. coli ATCC 25922, Staphylococcus aureus ATCC 29213, and methicillin resistant Staphylococcus aureus (MRSA) (WKZ-2, human clinical isolate) were grown overnight from a glycerol stock in Mueller Hinton Broth (MHB) (Becton Dickinson, USA). Before use, bacteria were grown to mid-log phase in MHB for 2 hours at 37 °C, 200 RPM. Murine RAW264.7 macrophages (ATCC-TIB-71) were obtained from the American Type Culture Collection (ATCC, Manassas, VA, USA) and cultured in DMEM (41966-029; Thermo Fisher Scientific, Waltham, MA, USA) supplemented with 10% FCS (Bodinco B.V., Alkmaar, the Netherlands) (DMEM + FCS) at 37 °C, 5.0% CO2. Cells were seeded in 96-wells plates at 5 × 10^5 cells/ml or 12-wells plates at 2 × 10^5/ml for adherence overnight prior to stimulation.
(§2) Peptides (0.63 to 40 μM) and bacteria mid-log cultures (2 * 10^6 CFU/ml) were prepared in MHB or DMEM + FCS and mixed (100 μl peptide + 100 μl bacterial culture) in a Bioscreen C analyzer plate (Oy Growth Curves Ab Ltd, Helsingfors, Finland). Plates were placed in a Bioscreen C analyzer (Oy Growth Curves Ab Ltd) and bacteria were grown for 16 h at 37 °C with 200 RPM. The OD was measured every 15 minutes using a wideband filter (450–580 nm) to measure bacterial growth. The time needed grow above an OD of 0.6 was determined for all concentrations. Activity of peptides was expressed as the Cmax, the concentration of peptide required to delay the growth for 10 h compared to the control. Or, for peptides with low activity (no Cmax), activity was expressed as the hours of growth delay at 20 μM. Unlike the classic MIC and MBC determination used in microbiology, this method also enabled comparison of peptides with low antibacterial activity.
(§3) Twelve cathelicidins from 6 different species were selected for this study, namely: human LL-37, murine CRAMP, dog K9CATH, equine CATH (eCATH)-1, -2 and -3, chicken CATH (chCATH)-1, -2, and -3, porcine PMAP-23 and -36 and PR-39 (Table 1). Antimicrobial activity against E. coli and MRSA was directly compared under standardized conditions in MHB, a medium optimized for bacterial growth. Bacterial growth delay was defined as the delay in hours for peptide-treated bacteria to reach an OD of 0.6, compared to the non-treated control. Cmax is the minimal concentration needed to delay growth for a minimum of 10 hours compared to the non-treated control (Table 1 and Fig. 1A).
(§4) Figure 1 Antibacterial activity of cathelicidins. E. coli and MRSA (1 × 10^6 CFU/ml) of were grown in MHB or DMEM ± FCS for 16 hours under constant shaking (200 RPM). Every 15 minutes the OD was measured. Growth delay was defined as the time needed for peptide-treated bacteria to grow above an OD of 0.6 compared to the control bacteria (no peptide added) (A). Cathelicidins were tested in different concentrations (0.31 μM, 0.63 μM, 1.25 μM, 2.5 μM, 5 μM, 10 μM, and 20 μM) to determine the antimicrobial activity in MHB against E. coli (B) or MRSA (C) and in more physiological medium DMEM + FCS (D,E). Results are presented as average +/− SEM (N = 4).

[2] = test system: E. coli O78; test: Bacterial growth delay (Bioscreen C), E. coli; format: cell-based, Escherichia coli; conditions: for Max: hours growth delay with 20 μM cathelicidin, E. coli, DMEM / Delay of the growth of E. coli / Summary class, antimicrobial activity E. coli DMEM: DMEM + FCS; for Max: hours growth delay with 20 μM cathelicidin, E. coli, DMEM / Max: hours growth delay with 20 μM cathelicidin, E. coli, MHB: 20 μM peptide, given if no Cmax was reached; for Max: hours growth delay with 20 μM cathelicidin, E. coli, DMEM / Max: hours growth delay with 20 μM cathelicidin, E. coli, MHB / Cmax, E. coli, DMEM / Cmax: cathelicidin concentration resulting in a delay in bacterial growth with minimal 10 hours, E. coli, MHB: N = 4; for Max: hours growth delay with 20 μM cathelicidin, E. coli, MHB / Cmax: cathelicidin concentration resulting in a delay in bacterial growth with minimal 10 hours, E. coli, MHB: time to OD 0.6 vs control; for Summary class, antimicrobial activity E. coli MHB / Summary class, antimicrobial activity E. coli DMEM: − is not defined in the key; for Cmax, E. coli, DMEM: DMEM + FCS (10%); for Cmax, E. coli, DMEM / Cmax: cathelicidin concentration resulting in a delay in bacterial growth with minimal 10 hours, E. coli, MHB: 1 × 10^6 CFU/ml, peptide 0.31-20 μM, 16 h, 37 °C, — = no Cmax reached up to 20 μM; for Delay of the growth of E. coli: peptide concentration not given (0.31-20 μM tested); for Cmax: cathelicidin concentration resulting in a delay in bacterial growth with minimal 10 hours, E. coli, MHB: 200 RPM
Procedure: as §1, §2, §3, §4

Substance | Cmax, MRSA, DMEM [1] [µM] | Summary class, antimicrobial activity S. aureus DMEM [1] | Cmax, MRSA, MHB ([1]; MHB) [µM] | Summary class, antimicrobial activity S. aureus MHB ([1]; MHB) | Max: hours growth delay with 20 μM cathelicidin, E. coli, DMEM [2] [h] | Max: hours growth delay with 20 μM cathelicidin, E. coli, MHB ([2]; MHB) [h] | Summary class, antimicrobial activity E. coli MHB ([2]; MHB) | Max: hours growth delay with 20 μM cathelicidin, MRSA, DMEM [1] [h] | Max: hours growth delay with 20 μM cathelicidin, MRSA, MHB ([1]; MHB) [h] | Activity against E. coli in MHB, in words ([2]; MHB, peptide up to 20 μM) | Cmax, E. coli, DMEM [2] [µM] | Delay of the growth of E. coli [2] | Summary class, antimicrobial activity E. coli DMEM [2] | Cmax: cathelicidin concentration resulting in a delay in bacterial growth with minimal 10 hours, E. coli, MHB ([2]; MHB) [µM] | Activity against MRSA in MHB, in words ([1]; MHB, peptide up to 20 μM)
RIIDLLWRVRRPQKPKFVTVWVR [PMAP-23, porcine α-helical cathelicidin, 23 residues, charge +6] | 10 | +++ (+++ = Cmax at ≤20 μM) | 20 | +++ (+++ = Cmax at ≤20 μM) | 3.5 | 9.5 | ++ (++ = >8 hours inhibition at 20 μM) | – | – | – | – | – | – | – | –
RLKELITTGGQKIGEKIRRIGQRIKDFFKNLQPREEKS [Peptide K9CATH, dog cathelicidin, 38 residues, charge +6] | – | + (+ = >4 hours inhibition at 20 μM) | – | – | 1.5 | 3.0 | – | 4.5 | 0.5 | no or very little activity | – | – | – | – | –
RFGRFLRKIRRFRPKVTITIQGSARF-NH2 [chCATH-2, chicken CATH-2, C-terminal amide, 26 residues, charge +9] | 0.31 | +++ (+++ = Cmax at ≤20 μM) | 2.5 | +++ (+++ = Cmax at ≤20 μM) | – | – | +++ (+++ = Cmax at ≤20 μM) | – | – | – | 10 | at least 7 hours | +++ (+++ = Cmax at ≤20 μM) | 5 | –
KRRHWFPLSFQEFLEQLRRFRDQLPFP [eCATH-2, equine CATH-2, 27 residues, charge +4] | – | – | – | – | 2.0 | 9.0 | ++ (++ = >8 hours inhibition at 20 μM) | 3.5 | 1.5 | – | – | – | – | – | –
Ac-GRFRRLRKKTRKRLKKIGKVLKWIPPIVGSIPLGCG [PMAP-36, porcine α-helical cathelicidin, N-acetylated, 36 residues, charge +13] | 0.31 | +++ (+++ = Cmax at ≤20 μM) | 10 | +++ (+++ = Cmax at ≤20 μM) | – | – | +++ (+++ = Cmax at ≤20 μM) | – | – | – | 2.5 | at least 7 hours | +++ (+++ = Cmax at ≤20 μM) | 5 | –
GLLRKGGEKIGEKLKKIGQKIKNFFQKLVPQPEQ [CRAMP, murine cathelicidin, 34 residues, charge +6] | – | + (+ = >4 hours inhibition at 20 μM) | – | – | 2.5 | 9.0 | ++ (++ = >8 hours inhibition at 20 μM) | 6.5 | 0.5 | – | – | – | – | – | –
RRRPRPPYLPRPRPPPFFPPRLPPRIPPGFPPRFPPRFP [PR-39, porcine proline-rich cathelicidin forming a polyproline helix, 39 residues, charge +10] | 10 | +++ (+++ = Cmax at ≤20 μM) | – | – | 7.0 | – | +++ (+++ = Cmax at ≤20 μM) | – | 0.5 | – | – | at least 7 hours | + (+ = >4 hours inhibition at 20 μM) | 20 | no effect
RVKRFWPLVPVAINTVAAGINLYKAIRRK [chCATH-3, chicken CATH-3, 29 residues, charge +7] | 0.31 | +++ (+++ = Cmax at ≤20 μM) | 5 | +++ (+++ = Cmax at ≤20 μM) | 5.5 | – | +++ (+++ = Cmax at ≤20 μM) | – | – | – | – | – | + (+ = >4 hours inhibition at 20 μM) | 20 | –
